The experiment can be described thus: Inhibition of HCV NS5B RdRp. The arrangement: species or system Hepacivirus hominis.

Consider `COC(=O)[C@H](Cc1c[nH]c2ccc(O)cc12)NC(=O)c1ccc2nc(-c3ccc(F)cc3)c(-c3ccc(F)cc3)nc2c1`, for which the IC50 – broadly, the concentration at which inhibition is half-maximal – amounted to 5.5 µM. In other words, the single-digit micromolar range. Compound `COC(=O)[C@H](Cc1c[nH]c2ccccc12)NC(=O)c1ccc2nc(-c3ccc(C)cc3)c(-c3ccc(C)cc3)nc2c1` yielded an IC50 of over 100 µM.

`COC(=O)[C@H](Cc1c[nH]c2ccccc12)NC(=O)c1ccc2nc(-c3ccccn3)c(-c3ccccn3)nc2c1` had a concentration for half-maximal inhibition (IC50) of over 100 µM. `O=C(N[C@@H](Cc1c[nH]c2ccccc12)C(=O)O)c1ccc2nc(C3CCCCC3)c(-c3ccc(F)cc3)nc2c1` returned an IC50 of 3.4 µM. Compound `COC(=O)[C@H](Cc1c[nH]c2ccc(O)cc12)NC(=O)c1ccc2nc(-c3ccccc3)c(-c3ccccc3)nc2c1` gave an IC50 of 72 µM. On to `CCOC(=O)/C=C/c1ccc(NC(=O)c2ccc3nc(-c4ccc(F)cc4)c(-c4ccc(F)cc4)nc3c2)cc1`, for which the IC50 was over 100 µM. For `COc1cccc(-c2nc3ccc(C(=O)N[C@@H](Cc4c[nH]c5ccccc45)C(=O)O)cc3nc2-c2cccc(OC)c2)c1`, the IC50 was over 100 µM.

`Cc1ccc(-c2nc3ccc(C(=O)N[C@@H](Cc4c[nH]c5ccc(O)cc45)C(=O)O)cc3nc2-c2ccc(C)cc2)cc1` registered an IC50 of 6.1 µM.

`O=C(O)/C=C/c1ccc(NC(=O)c2ccc3nc(-c4ccc(F)cc4)c(-c4ccc(F)cc4)nc3c2)cc1` came in with an IC50 of 17 µM.

Consider `Cc1ccc(-c2nc3ccc(C(=O)O)cc3nc2-c2ccc(C)cc2)cc1`, for which the midpoint of inhibition, the IC50, lay at 40 µM. `O=C(O)/C=C/c1ccc(NC(=O)c2ccc3nc(C4CCCCC4)c(-c4ccccc4)nc3c2)cc1` displayed an IC50 of 1.3 µM. This IC50 lies about 31-fold lower than the previous one. As to `COC(=O)[C@H](Cc1c[nH]c2ccccc12)NC(=O)c1ccc2nc(-c3ccc(F)cc3)c(-c3ccc(F)cc3)nc2c1`, the IC50 is over 100 µM. `COC(=O)/C=C/COc1ccc2[nH]cc(C[C@H](NC(=O)c3ccc4nc(-c5ccc(F)cc5)c(-c5ccc(F)cc5)nc4c3)C(=O)OC)c2c1` had an IC50 of 53 µM. In other words, the double-digit micromolar range. `O=C(Nc1ccc(-c2ccc(C(=O)O)o2)cc1)c1ccc2nc(C3CCCCC3)c(-c3ccccc3)nc2c1`: half-maximal inhibition (IC50) was put at 1.8 µM. `COc1cccc(-c2nc3ccc(C(=O)N[C@@H](Cc4c[nH]c5ccc(O)cc45)C(=O)O)cc3nc2-c2cccc(OC)c2)c1` gave an IC50 of 15 µM. On to `COC(=O)[C@H](Cc1c[nH]c2ccc(O)cc12)NC(=O)c1ccc2nc(-c3ccco3)c(-c3ccco3)nc2c1`, for which the IC50 came out at 26 µM. Under `O=C(N[C@@H](Cc1c[nH]c2ccc(O)cc12)C(=O)O)c1ccc2nc(-c3ccc(F)cc3)c(-c3ccc(F)cc3)nc2c1` stands 1.3 µM.

Regarding `CCOC(=O)/C=C/c1ccc(NC(=O)C2(NC(=O)c3ccc4nc(-c5ccc(F)cc5)c(C5CCCCC5)nc4c3)CCC2)cc1`, 1.3 µM corresponded to half-maximal inhibition (IC50).

In turn, `O=C(O)c1ccc2nc(-c3ccco3)c(-c3ccco3)nc2c1` registered an IC50 of 17 µM.

`COC(=O)[C@H](Cc1c[nH]c2ccc(O)cc12)NC(=O)c1ccc2nc(-c3ccc(C)cc3)c(-c3ccc(C)cc3)nc2c1` displayed an IC50 of 49 µM. Under `COC(=O)[C@H](Cc1c[nH]c2ccccc12)NC(=O)c1ccc2nc(-c3ccccc3)c(-c3ccccc3)nc2c1` stands over 100 µM; under `O=C(N[C@@H](Cc1c[nH]c2ccc(O)cc12)C(=O)O)c1ccc2nc(-c3ccc(F)cc3)c(C3CCCCC3)nc2c1`, 4.6 µM; under `CCOC(=O)/C=C/c1ccc(NC(=O)C2(NC(=O)c3ccc4nc(-c5ccc(F)cc5)c(-c5ccc(F)cc5)nc4c3)CCCC2)cc1`, over 100 µM. As to `O=C(N[C@@H](Cc1c[nH]c2ccccc12)C(=O)O)c1ccc2nc(-c3ccccc3)c(-c3ccccc3)nc2c1`, the IC50 was 15 µM. In other words, the double-digit micromolar range. The compound `COC(=O)COc1ccc2[nH]cc(C[C@H](NC(=O)c3ccc4nc(-c5ccc(F)cc5)c(-c5ccc(F)cc5)nc4c3)C(=O)OC)c2c1` yielded an IC50 of 100 µM. For `COC(=O)[C@H](Cc1c[nH]c2ccccc12)NC(=O)c1ccc2nc(-c3ccco3)c(-c3ccco3)nc2c1`, the IC50 is over 100 µM. `O=C(N[C@@H](Cc1c[nH]c2ccccc12)C(=O)O)c1ccc2nc(C3CCCCC3)c(-c3ccccc3)nc2c1` yielded an IC50 of 3.7 µM.

For `O=C(O)/C=C/c1ccc(NC(=O)c2ccc3nc(-c4ccc(F)cc4)c(C4CCCCC4)nc3c2)cc1`, the IC50 was 4.6 µM. The IC50 values of the last two compounds are within 1.5-fold of each other. `O=C(N[C@@H](Cc1c[nH]c2ccccc12)C(=O)O)c1ccc2nc(-c3ccc(F)cc3)c(C3CCCCC3)nc2c1` returned an IC50 of 1.6 µM. The compound `O=C(N[C@@H](Cc1c[nH]c2ccccc12)C(=O)O)c1ccc2nc(-c3ccccn3)c(-c3ccccn3)nc2c1` showed a half-inhibitory concentration (IC50) of over 100 µM. For the compound `O=C(N[C@@H](Cc1c[nH]c2ccc(O)cc12)C(=O)O)c1ccc2nc(-c3ccccc3)c(-c3ccccc3)nc2c1`, the IC50 worked out at 11 µM.

Consider `O=C(N[C@@H](Cc1c[nH]c2ccc(O)cc12)C(=O)O)c1ccc2nc(-c3ccco3)c(-c3ccco3)nc2c1`, for which the IC50 was determined as 16 µM.

For `O=C(O)c1ccc2nc(-c3ccc(F)cc3)c(-c3ccc(F)cc3)nc2c1`, the IC50 was determined as 5.5 µM. For `O=C(O)/C=C/COc1ccc2[nH]cc(C[C@H](NC(=O)c3ccc4nc(-c5ccc(F)cc5)c(-c5ccc(F)cc5)nc4c3)C(=O)O)c2c1`, the IC50 was determined as 2.2 µM.

For `COC(=O)[C@H](Cc1c[nH]c2ccc(OCC(N)=O)cc12)NC(=O)c1ccc2nc(-c3ccc(F)cc3)c(-c3ccc(F)cc3)nc2c1`, the midpoint of inhibition, the IC50, lay at 8.6 µM. Compared with the last compound, the IC50 is about 3.9-fold higher. `O=C(O)c1ccc2nc(-c3ccccn3)c(-c3ccccn3)nc2c1` registered an IC50 of over 100 µM. In turn, `O=C(O)/C=C/c1ccc(NC(=O)C2(NC(=O)c3ccc4nc(-c5ccc(F)cc5)c(-c5ccc(F)cc5)nc4c3)CCCC2)cc1` returned an IC50 of 1.2 µM. In other words, the single-digit micromolar range. The compound `O=C(O)/C=C/c1ccc(NC(=O)C2(NC(=O)c3ccc4nc(-c5ccc(F)cc5)c(-c5ccc(F)cc5)nc4c3)CCC2)cc1` came in with an IC50 of 0.69 µM.

On to `O=C(O)COc1ccc2[nH]cc(C[C@H](NC(=O)c3ccc4nc(-c5ccc(F)cc5)c(-c5ccc(F)cc5)nc4c3)C(=O)O)c2c1`, for which the IC50 came to 1.7 µM. Against the preceding compound, the IC50 is about 2.5-fold higher. Regarding `NC(=O)COc1ccc2[nH]cc(C[C@H](NC(=O)c3ccc4nc(-c5ccc(F)cc5)c(-c5ccc(F)cc5)nc4c3)C(=O)O)c2c1`, the IC50 came to 3.2 µM. This IC50 lies about 1.9-fold higher than the previous one.

Compound `COC(=O)[C@H](Cc1c[nH]c2ccc(O)cc12)NC(=O)c1ccc2nc(-c3cccc(OC)c3)c(-c3cccc(OC)c3)nc2c1` returned an IC50 of over 100 µM. Under `CCOC(=O)/C=C/c1ccc(NC(=O)C2(NC(=O)c3ccc4nc(C5CCCCC5)c(-c5ccc(F)cc5)nc4c3)CCC2)cc1` stands 5.1 µM. Turning to `O=C(N[C@@H](Cc1c[nH]c2ccc(O)cc12)C(=O)O)c1ccc2nc(-c3ccccc3)c(C3CCCCC3)nc2c1`, the IC50 was 0.6 µM.

For the compound `O=C(N[C@@H](Cc1c[nH]c2ccccc12)C(=O)O)c1ccc2nc(-c3ccccc3)c(C3CCCCC3)nc2c1`, half-maximal inhibition (IC50) required 1.8 µM.

In turn, `COc1cccc(-c2nc3ccc(C(=O)O)cc3nc2-c2cccc(OC)c2)c1` gave an IC50 of over 100 µM. The compound `O=C(N[C@@H](Cc1c[nH]c2ccccc12)C(=O)O)c1ccc2nc(-c3ccco3)c(-c3ccco3)nc2c1` yielded an IC50 of 33 µM. In turn, `O=C(N[C@@H](Cc1c[nH]c2ccc(O)cc12)C(=O)O)c1ccc2nc(C3CCCCC3)c(-c3ccccc3)nc2c1` registered an IC50 of 5 µM. The figure for `O=C(O)c1ccc2nc(-c3ccccc3)c(-c3ccccc3)nc2c1` is 79 µM; for `O=C(Nc1ccc(-c2ccc(C(=O)O)o2)cc1)c1ccc2nc(-c3ccccc3)c(C3CCCCC3)nc2c1` it is 1.6 µM. With `O=C(O)/C=C/c1ccc(NC(=O)c2ccc3nc(C4CCCCC4)c(-c4ccc(F)cc4)nc3c2)cc1`, it took 4.1 µM to reach half-maximal inhibition (IC50). Under `O=C(N[C@@H](Cc1c[nH]c2ccccc12)C(=O)O)c1ccc2nc(-c3ccc(F)cc3)c(-c3ccc(F)cc3)nc2c1` stands 1.9 µM; under `CCOC(=O)/C=C/c1ccc(NC(=O)C2(NC(=O)c3ccc4nc(-c5ccc(F)cc5)c(-c5ccc(F)cc5)nc4c3)CCC2)cc1`, 37 µM; under `COC(=O)[C@H](Cc1c[nH]c2ccccc12)NC(=O)c1ccc2nc(-c3cccc(OC)c3)c(-c3cccc(OC)c3)nc2c1`, over 100 µM.

On to `O=C(N[C@@H](Cc1c[nH]c2ccc(O)cc12)C(=O)O)c1ccc2nc(C3CCCCC3)c(-c3ccc(F)cc3)nc2c1`, for which the IC50 was determined as 4.1 µM.
